The results in this text go back to patent publication US7763426B2, “Probes and methods for detection of Escheridia coli and antibiotic resistance” (priority 2004, dated 2010).

Entries after “also recorded” stand apart in the source; their conditions may differ. {Fluorescein} = fluorescein label (binding site for anti-fluorescein Fab-HRP); {Biotin} = biotin (capture probe anchor)

In data set [1] the test system is 16S rRNA in lysates of uropathogens. Put plainly: Species specificity of uropathogen probe pairs with the electrochemical sensor array (Example 1). The data set is classed as binding. The conditions noted are these: probe pairs of Table 1.
In data set [2] the test system is bacterial 16S rRNA. Put plainly: Amperometric detection of bacterial 16S rRNA, statements over several targets (Examples 2, 3). The data set is classed as binding. The conditions noted are these: previous studies; no gap between hybridization sites. As to the method: Sensor characterization and surface functional layer preparation. Microfabricated electrochemical sensor arrays with an alkanethiolate self-assembled monolayer (SAM) were obtained from GeneFluidics (Monterey Park, Calif.). SAM integrity was confirmed by cyclic voltammetry (CV) (1) using a 16-channel potentiostat (GeneFluidics). After CV characterization, sensor arrays were washed and dried. Washing steps were carried out by applying a stream of deionized H2O to the sensor surface for approximately 2-3 sec followed by 5 sec of drying under a stream of nitrogen. To functionalize the sensor surface, 2.5 μl of 0.5 U/ml streptavidin (Calbiochem, San Diego, Calif.) in 100 mM phosphate buffered saline, pH 7.4 was added to the alkanethiol activated sensors, incubated for 10 min at room temperature and washed off. Biotinylated capture probes (2.5 μl, 1 μM in GeneFluidics' Probe Diluent) were added to the streptavidin-coated sensors. […]
Amperometric Detection of bacterial 16S rRNA. […] Amperometric current vs. time was measured using a multichannel potentiostat (GeneFluidics). The voltage was fixed at −200 mV (vs. reference), and the electroreduction current was measured at 60 sec after the HRP redox reaction reached steady state. All samples were analyzed in duplicate. […] Positive signals are determined by comparing the signals with the background using paired T test. […]

In the case of “UNI: Universal Bacterial probe pair: capture 797 (27 mer) SEQ ID NO: 13, detector 766 (31 mer) SEQ ID NO: 14 (DNA 1 CATCGTTTACGGCGTGGACTACCAGGG; DNA 2 TATCTAATCCTGTTTGCTCCCCACGCTTTCG; DNA 1: DNA, 5' {Biotin}, backbone and methylation of C not given here; DNA 2: DNA, 5' {Fluorescein}, backbone and methylation of C not given here)”, in data set [1], the Species detected entry is on record as “Cf, Ea, Ec, Ef, El, Eo, Ko, Kp,; also recorded: Mm, Pa, Pm, Ss, Sa” and the Species not detected entry is on record as “None”. Further, the “higher signals than the species-specific probes with 6 bp gap” value in data set [2] is 1.5-4 fold.
